These results are taken from ChEMBL document CHEMBL3638545 (2015).

Structures are written as SMILES.

One may read the IC50 as the concentration that inhibits the measured activity by half. High values mean lower potency, low ones higher potency.

The target of this experiment is Sodium channel protein type 5 subunit alpha (Homo sapiens, UniProt Q14524). As to the kind of experiment: Electrophysiological Assay: Patch voltage clamp electrophysiology allows for the direct measurement and quantification of block of voltage-gated sodium channels (NaV's), and allows the determination of the time- and voltage-dependence of block which has been interpreted as differential binding to the resting, open, and inactivated states of the sodium channel (Hille, B., Journal of General …. It is filed as cell-based, HEK293.
Sequence of Sodium channel protein type 5 subunit alpha (Q14524 whole entry): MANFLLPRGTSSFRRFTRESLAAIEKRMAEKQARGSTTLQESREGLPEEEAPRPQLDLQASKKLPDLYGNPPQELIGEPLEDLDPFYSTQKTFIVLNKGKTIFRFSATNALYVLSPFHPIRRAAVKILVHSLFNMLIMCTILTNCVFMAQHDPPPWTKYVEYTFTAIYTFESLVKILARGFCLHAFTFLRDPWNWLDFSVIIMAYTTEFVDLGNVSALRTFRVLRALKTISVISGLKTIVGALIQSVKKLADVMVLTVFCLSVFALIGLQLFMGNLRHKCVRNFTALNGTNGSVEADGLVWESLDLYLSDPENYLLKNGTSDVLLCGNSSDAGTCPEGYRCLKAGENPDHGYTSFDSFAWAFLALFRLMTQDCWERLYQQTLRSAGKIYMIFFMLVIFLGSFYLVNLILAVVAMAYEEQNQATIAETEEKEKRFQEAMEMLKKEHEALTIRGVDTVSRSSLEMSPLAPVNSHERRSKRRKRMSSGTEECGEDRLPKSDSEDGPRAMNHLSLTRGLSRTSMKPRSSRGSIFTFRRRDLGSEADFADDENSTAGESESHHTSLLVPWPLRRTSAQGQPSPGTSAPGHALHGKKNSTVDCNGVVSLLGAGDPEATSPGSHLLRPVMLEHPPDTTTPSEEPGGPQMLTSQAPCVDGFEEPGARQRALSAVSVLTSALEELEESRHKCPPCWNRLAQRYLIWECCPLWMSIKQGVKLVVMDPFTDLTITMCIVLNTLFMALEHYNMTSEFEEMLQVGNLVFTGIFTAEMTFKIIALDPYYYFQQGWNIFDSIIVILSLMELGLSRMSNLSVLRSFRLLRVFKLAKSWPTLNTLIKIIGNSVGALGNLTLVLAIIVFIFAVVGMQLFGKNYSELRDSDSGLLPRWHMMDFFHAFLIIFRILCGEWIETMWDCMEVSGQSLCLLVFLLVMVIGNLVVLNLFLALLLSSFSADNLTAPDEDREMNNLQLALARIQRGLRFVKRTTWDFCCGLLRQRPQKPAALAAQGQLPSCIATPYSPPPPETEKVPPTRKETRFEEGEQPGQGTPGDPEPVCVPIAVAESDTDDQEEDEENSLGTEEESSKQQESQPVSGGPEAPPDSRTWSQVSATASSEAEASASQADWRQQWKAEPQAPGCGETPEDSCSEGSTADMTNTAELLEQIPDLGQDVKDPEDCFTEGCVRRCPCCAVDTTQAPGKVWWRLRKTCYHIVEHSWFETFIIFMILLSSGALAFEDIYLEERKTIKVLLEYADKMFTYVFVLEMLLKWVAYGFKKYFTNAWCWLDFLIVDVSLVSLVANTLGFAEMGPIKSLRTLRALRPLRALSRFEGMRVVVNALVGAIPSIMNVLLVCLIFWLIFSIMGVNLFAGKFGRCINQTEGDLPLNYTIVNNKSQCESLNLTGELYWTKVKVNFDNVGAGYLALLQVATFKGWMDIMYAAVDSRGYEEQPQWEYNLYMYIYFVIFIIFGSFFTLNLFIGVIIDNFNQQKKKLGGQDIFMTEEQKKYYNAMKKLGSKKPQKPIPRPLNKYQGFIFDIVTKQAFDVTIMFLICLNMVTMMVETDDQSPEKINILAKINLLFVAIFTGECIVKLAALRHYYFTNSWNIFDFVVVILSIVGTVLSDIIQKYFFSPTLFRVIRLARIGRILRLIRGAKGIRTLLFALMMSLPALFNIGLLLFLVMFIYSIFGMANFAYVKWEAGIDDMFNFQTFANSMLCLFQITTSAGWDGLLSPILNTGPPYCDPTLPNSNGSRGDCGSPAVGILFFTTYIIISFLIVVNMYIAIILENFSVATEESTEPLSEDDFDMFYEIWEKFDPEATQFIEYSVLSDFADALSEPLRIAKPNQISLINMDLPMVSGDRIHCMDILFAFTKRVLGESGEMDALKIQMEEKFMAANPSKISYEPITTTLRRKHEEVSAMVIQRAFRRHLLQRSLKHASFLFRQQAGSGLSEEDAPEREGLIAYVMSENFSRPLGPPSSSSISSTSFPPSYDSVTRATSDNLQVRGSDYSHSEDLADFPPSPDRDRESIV
In turn, `CN(C)S(=O)(=O)NC(=O)c1cc(Cl)c(OCC23CC4CC(CC(C4)C2)C3)cc1F` registered an IC50 of 772 nM.
`COCCS(=O)(=O)NC(=O)c1cc(C2CC2)c(OCC23CC4CC(CC(C4)C2)C3)cc1F` registered an IC50 of 101 nM.
With `CC1(C)CCc2cc(OCc3cc(F)c(C(=O)NS(=O)(=O)N4CCC4)cc3Cl)ccc2O1`, the 50% inhibitory concentration (IC50) turned out to be 653 nM.
Take `CS(=O)(=O)NC(=O)c1cc(C2CC2)c(OCC23CC4CC(C2)C(F)(F)C(C4)C3)cc1F`: the IC50 worked out at 714 nM.
As to `O=C(NS(=O)(=O)N1CCOCC1)c1cc(C2CC2)c(OCC23CC4CC(CC(C4)C2)C3)cc1F`, the IC50 worked out at 14 nM.
`O=C(NS(=O)(=O)N1CCC1)c1cc(C2CC2)c(OCC23CC4(F)CC(F)(CC(F)(C4)C2)C3)cc1F`: the IC50 came out at 950 nM.
For `O=C(NS(=O)(=O)N1CCC1)c1cc(C2CC2)c(OCC2(C(F)(F)F)CCCCC2)cc1F`, the half-maximal inhibitory concentration (IC50) worked out at 350 nM.
